The source of these data is US20220008508A1, “RELAXIN RECEPTOR 1 FOR USE IN TREATMENT AND PREVENTION OF HEART FAILURE” (Universität Heidelberg, priority 2018, published 2022).

Series [1] concerns TAC-induced heart failure in mice. Kind of series: TAC heart failure model, echocardiography after AAV9-RXFP1 (rat) gene therapy with or without RLN pumps. Type of series: in vivo, C57BL/6 mice. To be noted: day 55, control AAV9.LUC virus, RLN pump. The procedure: Transverse aortic constriction (TAC) operation was previously described (Rockman et al., 1991, Proc. Natl. Acad. Sci. 88: 8277-8281). TAC model was used as heart failure model. 8 weeks old C57BL/6 mice were weighted prior to the operation. TAC operation was performed on day 0 using 26-gauge blunt needle effectively reducing the diameter of the transverse aorta to approximately 0.46 mm (Rockman et al., 1994, Proc. Natl. Acad. Sci. 91(7): 2694-2698). Cardiac function was assessed by echocardiography (Vevo 2100 VisualSonics) before TAC operation (day −2), before virus infusion (day 7), before pump implantation (day 28), and at 2-month follow up (day 55) (FIG. 1A and B). […] Osmotic pumps (Alzet 2004) were implanted on day 28 with animals randomized to get either saline or recombinant relaxin pumps. Follow up assessments were performed on day 55 and the animals were sacrificed 3 days later. In addition, 17 mice served as control animals which underwent sham operation, followed by either saline or recombinant relaxin pump implantation.
Echocardiography was performed using Vevo 2100, VisualSonics. The mice were shaved and held in prone position. […] The ejection fraction (EF), fractional shortening (FS), left ventricular internal diameter (LVIDd) and heart rate (HR) were calculated from 6 consecutive heartbeats in the M-mode using LV trace function.

Series [2] concerns the target T1, RXFP1 receptor (Rattus norvegicus, UniProt Q6R6I6).
T1 construct: expressed in transfected cells; host or cells: neonatal rat ventricular cardiomyocytes (NRVMs) transduced with AAV6-RXFP1
T1 sequence (Q6R6I6 1-758): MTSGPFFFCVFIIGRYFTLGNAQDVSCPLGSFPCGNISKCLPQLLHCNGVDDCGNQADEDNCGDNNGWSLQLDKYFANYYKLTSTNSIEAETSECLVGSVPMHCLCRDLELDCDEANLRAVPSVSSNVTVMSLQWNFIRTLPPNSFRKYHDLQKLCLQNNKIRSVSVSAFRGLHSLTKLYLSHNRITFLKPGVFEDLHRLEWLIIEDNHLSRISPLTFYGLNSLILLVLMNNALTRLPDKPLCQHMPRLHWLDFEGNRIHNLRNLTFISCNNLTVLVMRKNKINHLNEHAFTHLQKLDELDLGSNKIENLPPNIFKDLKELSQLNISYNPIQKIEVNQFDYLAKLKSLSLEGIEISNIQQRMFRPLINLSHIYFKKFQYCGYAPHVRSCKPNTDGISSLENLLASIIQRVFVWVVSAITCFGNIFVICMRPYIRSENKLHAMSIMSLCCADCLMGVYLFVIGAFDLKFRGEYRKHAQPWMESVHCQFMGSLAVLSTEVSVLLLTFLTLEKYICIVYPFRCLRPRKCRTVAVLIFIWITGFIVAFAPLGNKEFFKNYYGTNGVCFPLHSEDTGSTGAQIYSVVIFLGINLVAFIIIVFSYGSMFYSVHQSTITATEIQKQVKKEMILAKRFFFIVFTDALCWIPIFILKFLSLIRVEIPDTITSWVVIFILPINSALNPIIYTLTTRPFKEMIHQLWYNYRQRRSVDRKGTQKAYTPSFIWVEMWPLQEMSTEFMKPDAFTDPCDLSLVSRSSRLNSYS
As to the kind of experiment: cAMP production (cAMP Glo assay) in RXFP1-transduced NRVMs stimulated with RLN. Type of series: cell-based. The procedure: Manufacture's manual was followed. […] The luminescence was measured with a luminometer.

Series [3] can be described thus: Circulating plasma levels of recombinant relaxin H2 by ELISA. Type of series: in vivo, mice. To be noted: all animals receiving RLN by osmotic pump. As for the experimental part:
Circulating plasma levels of recombinant relaxin H2 were measured using a ready to use relaxin H2 Quantikine ELISA kit from R&D Systems (DLR200). Plasma samples were diluted 1:200 to stay within the detection range of the assay. 50 μL of negative control, positive control, standard and diluted samples were used for the measurement.
For orientation: An ELISA detects its analyte on a solid surface through an enzyme-linked reagent.

The subject of series [4] is TAC-induced heart failure in mice. Kind of series: TAC heart failure model, echocardiography after huRXFP1 gene therapy with or without RLN pumps. Type of series: in vivo, C57BL/6 mice. To be noted: day 55, control AAV9.LUC virus, RLN pump. The procedure:
Heart failure model was generated by transverse aortic constriction operation (TAC) previously described (Rockman et al., 1991, Proc. Natl. Acad. Sci. 88: 8277-8281). 8 weeks old C57BL/6 mice were ordered and weighted prior to the operation. TAC operation was performed on day 0 using 26-gauge blunt needle effectively reducing the diameter of the transverse aorta to approximately 0.46 mm (Rockman et al., 1994, Proc. Natl. Acad. Sci. 91(7): 2694-2698). Cardiac function measurements were performed before Transverse aortic Constriction (TAC) operation (day −2) before virus infusion (day 7), before pump implantation (day 28), and at 2-month follow up time point (day 55) (FIG. 7A). […] Osmotic pumps were implanted on day 28 with animals randomized to get either saline or recombinant relaxin pumps. Follow up assessments were performed on day 55 and the animals were sacrificed 3 days later. In addition, 17 mice served as control animals that were sham operated followed by either saline or recombinant relaxin pumps implantation.
Echocardiography was performed using Vevo 2100, VisualSonics. The mice were shaved on the chest and held in prone position. […] The ejection fraction (EF) was calculated from 6 consecutive heartbeats in the M-mode using LV trace function.

Turning to “RLN: recombinant relaxin H2 peptide hormone, RXFP1 agonist”, in series [1], the “Ejection fraction (EF)” value was 47.79±13.38% and the “Fractional shortening (FS)” value turned out to be 23.98±7.64. In series [2] (30 minutes), the “RLN concentration at peak stimulation of the RXFP1 receptor (cAMP)” value is reported as 10 nM. For the same substance, the “cAMP accumulation with higher recombinant RLN concentrations” value in series [2] (above 10 nM RLN) was “no further increase”. Moreover, the RLN plasma levels entry in series [3] is “elevated”. Besides, in series [4], the “Ejection fraction (EF)” value was 50.02±18.31%.
